{"source": "patent US9040528B2", "about": "“Chemical compounds 542” (AstraZeneca AB, priority 2008, dated 2015)", "data": [{"molecular_target": "Escherichia coli DNA gyrase A/B tetramer (Escherichia coli (strain K12), UniProt P0AES4+P0AES6)", "experiment": "DNA gyrase supercoiling activity fluorescence polarisation assay", "type": "biochemical", "settings": "not given", "procedure": "(§1) DNA Gyrase Supercoiling Activity Fluorescence Polarisation Assay\n(§2) The supercoiling reactions may be quenched by the addition of 10 microliters/well of 40 nM oligodeoxynucleotide probe in 3× triplex-forming buffer consisting of 150 mM NaCl, and 150 mM sodium acetate at pH 3.5. The oligodeoxynucleotide probe may be 5′-BODIPY-FL-labeled […]. After 60 minutes, the fluorescence anisotropy of the BODIPY-FL may be measured in a Tecan Ultra plate reader, using 485 nm excitation and 535 nm emission filters equipped with polarizers. The IC50 may be determined by nonlinear regression using two control reactions. The first contains no test compound but 0.8% DMSO (100% activity) while the second control reaction contains 5 μM Ciprofloxacin and 0.8% DMSO (0% activity).", "units": {"IC50": "nM"}, "values": [{"compound": "C[C@@H]1CN2c3c(cc4c(C(N)=O)noc4c3F)CC3(C(=O)NC(=O)NC3=O)[C@H]2[C@H](C)O1", "note": "(relative stereo) [Example 142, (2R,4S,4aS)-rel-11-fluoro-2,4-dimethyl-2′,4′,6′-trioxo-2,2′,3′,4,4a,4′,6,6′-octahydro-^1H,1′H-spiro[isoxazolo[4,5-g][1,4]oxazino[4,3-a]quinoline-5,5′-pyrimidine]-8-carboxamide]", "IC50": 300}]}, {"molecular_target": "Escherichia coli DNA gyrase A/B tetramer (Escherichia coli (strain K12), UniProt P0AES4+P0AES6)", "experiment": "DNA gyrase supercoiling activity fluorescence polarisation assay", "type": "biochemical", "settings": "5 nM enzyme, relaxed plasmid, 0.3 mM ATP, ambient temperature; read-out: E. coli DNA gyrase supercoiling IC50", "procedure": "as §1, §2", "units": {"IC50": "nM"}, "values": [{"compound": "C[C@@H]1CN2c3c(nc4c(-c5cncs5)noc4c3Cl)CC3(C(=O)NC(=O)NC3=O)[C@H]2[C@H](C)O1", "note": "(relative stereo) [Example 115, (2R,4S,4aS)-rel-11-chloro-2,4-dimethyl-8-(thiazol-5-yl)-2,4,4a,6-tetrahydro-1H,1′H-spiro[isoxazolo[4,5-g][1,4]oxazino[4,3-a][1,5]naphthyridine-5,5′-pyrimidine]-2′,4′,6′(3′H)-trione]", "IC50": 1100}, {"compound": "C[C@@H]1CN2c3c(cc4c(N5CCN(C(=O)OC(C)(C)C)CC5)noc4c3F)CC3(C(=O)NC(=O)NC3=O)[C@H]2[C@H](C)O1", "note": "(relative stereo) [Example 20, tert-butyl 4-[(2R,4S,4aS)-rel-11-fluoro-2,4-dimethyl-2′,4′,6′-trioxo-1,1′,2,3′,4,4′,4a,6′-octahydro-2′H,6H-spiro[isoxazolo[4,5-g][1,4]oxazino[4,3-a]quinoline-5,5′-pyrimidin]-8-yl]piperazine-1-carboxylate]", "IC50": 20000}, {"compound": "C[C@@H]1CN2c3c(cc4c(-c5cn(C)cn5)noc4c3F)CC3(C(=O)NC(=O)NC3=O)[C@H]2[C@H](C)O1", "note": "(relative stereo) [Example 69, (2R,4S,4aS)-rel-11-fluoro-2,4-dimethyl-8-(1-methyl-1H-imidazol-4-yl)-1,2,4,4a-tetrahydro-2′H,6H-spiro[1,4-oxazino[4,3-a][1,2]oxazolo[4,5-g]quinoline-5,5′-pyrimidine]-2′,4′,6′(1′H,3′H)-trione]", "IC50": 17000}, {"compound": "C[C@@H]1CN2c3c(cc4c(N(C)Cc5ccccc5)noc4c3F)CC3(C(=O)NC(=O)NC3=O)[C@H]2[C@H](C)O1", "note": "(relative stereo) [Example 32, (2R,4S,4aS)-rel-8-[benzyl(methyl)amino]-11-fluoro-2,4-dimethyl-1,2,4,4a-tetrahydro-2′H,6H-spiro[1,4-oxazino[4,3-a][1,2]oxazolo[4,5-g]quinoline-5,5′-pyrimidine]-2′,4′,6′(1′H,3′H)-trione]", "IC50": 600}, {"compound": "C[C@@H]1CN2c3c(nc4c(-c5cnccn5)noc4c3Cl)CC3(C(=O)NC(=O)NC3=O)[C@H]2[C@H](C)O1", "note": "(relative stereo) [Example 110, (2R,4S,4aS)-rel-11-chloro-2,4-dimethyl-8-(pyrazin-2-yl)-2,4,4a,6-tetrahydro-1H,1′H-spiro[isoxazolo[4,5-g][1,4]oxazino[4,3-a][1,5]naphthyridine-5,5′-pyrimidine]-2′,4′,6′(3′H)-trione]", "IC50": 3000}, {"compound": "CON(C)C(=O)c1noc2c(F)c3c(cc12)CC1(C(=O)NC(=O)NC1=O)[C@H]1[C@H](C)O[C@H](C)CN31", "note": "(relative stereo) [Example 137, (2R,4S,4aS)-rel-11-fluoro-N-methoxy-N,2,4-trimethyl-2′,4′,6′-trioxo-2,2′,3′,4,4a,4′,6,6′-octahydro-1H,1′H-spiro[isoxazolo[4,5-g][1,4]oxazino[4,3-a]quinoline-5,5′-pyrimidine]-8-carboxamide]", "IC50": 2300}, {"compound": "C[C@@H]1CN2c3c(cc4c(-c5nc(C(=O)N(C)C)cs5)noc4c3F)CC3(C(=O)NC(=O)NC3=O)[C@H]2[C@H](C)O1", "note": "(racemic) [Example 86, 2-[(2R,4S,4 aS)-rel-11-fluoro-2,4-dimethyl-2′,4′,6′-trioxo-1,1′,2,3′,4,4′,4a,6′-octahydro-2′H,6H-spiro[1,4-oxazino[4,3-a][1,2]oxazolo[4,5-g]quinoline-5,5′-pyrimidin]-8-yl]-N,N-dimethyl-1,3-thiazole-4-carboxamide]", "IC50": 5000}, {"compound": "C[C@@H]1CN2c3c(nc4c(C(=O)NC(C)(C)C)noc4c3Cl)CC3(C(=O)NC(=O)NC3=O)[C@H]2[C@H](C)O1", "note": "(relative stereo) [Example 128, (2R,4S,4aS)-rel-N-tert-butyl-11-chloro-2,4-dimethyl-2′,4′,6′-trioxo-2,2′,3′,4,4a,4′,6,6′-octahydro-1H,1′H-spiro[isoxazolo[4,5-g][1,4]oxazino[4,3-a][1,5]naphthyridine-5,5′-pyrimidine]-8-carboxamide]", "IC50": 19000}, {"compound": "C[C@@H]1CN2c3c(cc4c(-c5cncc(Cl)n5)noc4c3F)CC3(C(=O)NC(=O)NC3=O)[C@H]2[C@H](C)O1", "note": "(relative stereo) [Example 79, (2R,4S,4aS)-rel-8-(6-chloropyrazin-2-yl)-11-fluoro-2,4-dimethyl-2,4,4a,6-tetrahydro-1H,1′H-spiro[isoxazolo[4,5-g][1,4]oxazino[4,3-a]quinoline-5,5′-pyrimidine]-2′,4′,6′(3′H)-trione]", "IC50": 800}, {"compound": "Cc1ncsc1-c1noc2c(F)c3c(cc12)CC1(C(=O)NC(=O)NC1=O)[C@@H]1[C@@H](C)O[C@@H](C)CN31", "note": "(relative stereo) [Example 71, (2R,4S,4aS)-rel-11-fluoro-2,4-dimethyl-8-(4-methyl-1,3-thiazol-5-yl)-1,2,4,4a-tetrahydro-2′H,6H-spiro[1,4-oxazino[4,3-a][1,2]oxazolo[4,5-g]quinoline-5,5′-pyrimidine]-2′,4′,6′(1′H,3′H)-trione]", "IC50": 900}, {"compound": "C[C@@H]1CN2c3c(nc4c(C(=O)NCc5ccccc5)noc4c3Cl)CC3(C(=O)NC(=O)NC3=O)[C@H]2[C@H](C)O1", "note": "(relative stereo) [Example 131, (2R,4S,4aS)-rel-N-benzyl-11-chloro-2,4-dimethyl-2′,4′,6′-trioxo-2,2′,3′,4,4a,4′,6,6′-octahydro-1H,1′H-spiro[isoxazolo[4,5-g][1,4]oxazino[4,3-a][1,5]naphthyridine-5,5′-pyrimidine]-8-carboxamide]", "IC50": 4400}, {"compound": "C[C@@H]1CN2c3c(cc4c(-c5scnc5C#N)noc4c3F)CC3(C(=O)NC(=O)NC3=O)[C@H]2[C@H](C)O1", "note": "(relative stereo) [Example 88, 5-[(2R,4S,4aS)-rel-11-fluoro-2,4-dimethyl-2′,4′,6′-trioxo-1,1′,2,3′,4,4′,4a,6′-octahydro-2′H,6H-spiro[1,4-oxazino[4,3-a][1,2]oxazolo[4,5-g]quinoline-5,5′-pyrimidin]-8-yl]-1,3-thiazole-4-carbonitrile]", "IC50": 1200}, {"compound": "C[C@@H]1CN2c3c(cc4c(-c5ccnc(N6CCOCC6)n5)noc4c3F)CC3(C(=O)NC(=O)NC3=O)[C@H]2[C@H](C)O1", "note": "[Example 176, (2R,4S,4aS)-11-fluoro-2,4-dimethyl-8-(2-morpholinopyrimidin-4-yl)-2,4,4a,6-tetrahydro-1H,1′H-spiro[isoxazolo[4,5-g][1,4]oxazino[4,3-a]quinoline-5,5′-pyrimidine]-2′,4′,6′(3′H)-trione]", "IC50": 3200}, {"compound": "C[C@@H]1CN2c3c(cc4c(-c5ncnn5C)noc4c3F)CC3(C(=O)NC(=O)NC3=O)[C@H]2[C@H](C)O1", "note": "[Example 178, (2R,4S,4aS)-11-fluoro-2,4-dimethyl-8-(1-methyl-1H-1,2,4-triazol-5-yl)-2,4,4a,6-tetrahydro-1H,1′H-spiro[isoxazolo[4,5-g][1,4]oxazino[4,3-a]quinoline-5,5′-pyrimidine]-2′,4′,6′(3′H)-trione]", "IC50": 1300}, {"compound": "C[C@@H]1CN2c3c(cc4c(-c5nccs5)noc4c3F)CC3(C(=O)NC(=O)NC3=O)[C@H]2[C@H](C)O1", "note": "[Example 96, (2R,4S,4aS)-11-fluoro-2,4-dimethyl-8-(thiazol-2-yl)-2,4,4a,6-tetrahydro-1H,1′H-spiro[isoxazolo[4,5-g][1,4]oxazino[4,3-a]quinoline-5,5′-pyrimidine]-2′,4′,6′(3′H)-trione]", "IC50": 700}, {"compound": "C[C@@H]1CN2c3c(cc4c(C(=O)N5CCN(C)C(=O)C5)noc4c3F)CC3(C(=O)NC(=O)NC3=O)[C@H]2[C@H](C)O1", "note": "(relative stereo) [Example 141, (2R,4S,4aS)-rel-11-fluoro-2,4-dimethyl-8-(4-methyl-3-oxopiperazine-1-carbonyl)-2,4,4a,6-tetrahydro-1H,1′H-spiro[isoxazolo[4,5-g][1,4]oxazino[4,3-a]quinoline-5,5′-pyrimidine]-2′,4′,6′(3′H)-trione]", "IC50": 4900}, {"compound": "CCCN(C)c1noc2c(F)c3c(cc12)CC1(C(=O)NC(=O)NC1=O)[C@H]1[C@H](C)O[C@H](C)CN31", "note": "(relative stereo) [Example 50, (2R,4S,4aS)-rel-11-fluoro-2,4-dimethyl-8-[methyl(propyl)amino]-1,2,4,4a-tetrahydro-2′H,6H-spiro[1,4-oxazino[4,3-a][1,2]oxazolo[4,5-g]quinoline-5,5′-pyrimidine]-2′,4′,6′(1′H,3′H)trione]", "IC50": 500}, {"compound": "C[C@@H]1CN2c3c(cc4c(N(C)C)noc4c3F)CC3(C(=O)NC(=O)NC3=O)[C@H]2[C@H](C)O1", "note": "(relative stereo) [Example 24, (2R,4S,4aS)-rel-8-(dimethylamino)-11-fluoro-2,4-dimethyl-1,2,4,4a-tetrahydro-2′H,6H-spiro[isoxazolo[4,5-g][1,4]oxazino[4,3-a]quinoline-5,5′-pyrimidine]-2′,4′,6′(1′H,3′H)-trione]", "IC50": 300}, {"compound": "CNC(=O)c1cnn(-c2noc3c(F)c4c(cc23)CC2(C(=O)NC(=O)NC2=O)[C@H]2[C@H](C)O[C@H](C)CN42)c1", "note": "(relative stereo) [Example 188, 1-[(2R,4S,4aS)-rel-11-fluoro-2,4-dimethyl-2′,4′,6′-trioxo-1,1′,2,3′,4,4′,4a,6′-octahydro-2′H,6H-spiro[1,4-oxazino[4,3-a][1,2]oxazolo[4,5-g]quinoline-5,5′-pyrimidin]-8-yl]-N-methyl-1H-pyrazole-4-carboxamide]", "IC50": 2700}]}]}
